Assay [1] deals with HCC1937. As to conditions: 72 h. In short, it runs like this:
(§1)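 Compound dissolved in 5 µl medium was placed in 384-well plates before 20 µl of breast cancer cell suspension was added, and the plates were incubated for 72 h. Cells then received 2.5 µl CellTiter-Blue for 2 h at 37 °C, and fluorescence was read at 560/590 nm. EC50 values come from percent-inhibition dose-response fits that were censored at the highest concentration, with plates normalised to vehicle and a positive kill control and rows with a zero drug sensitivity score excluded.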

Assay [2] concerns MFM-223. Conditions: 72 h. The method in brief:
as §1

For assay [3], the system named is MDA-MB-436. Conditions: 72 h. The method in brief: as §1
Assay [4] relates to BT-474. As to conditions: 72 h. The method in brief: as §1
Assay [5] has as its system BT-549. Conditions: 72 h. The method in brief:
as §1

Assay [6] has as its system SK-BR-3. As to conditions: 72 h. In short, it runs like this:
as §1

Assay [7] deals with Hs578T. As to conditions: 72 h. The method in brief:
as §1

Assay [8] relates to MDA-MB-231. As to conditions: 72 h. In short, it runs like this: as §1
The test system of assay [9] is MDA-MB-468. As to conditions: 72 h. The method in brief: as §1
Assay [10] concerns HCC1599. Conditions: 72 h. The method in brief: as §1
Assay [11] deals with HCC1143. As to conditions: 72 h. The method in brief:
as §1

Assay [12] concerns CAL-120. As to conditions: 72 h. The method in brief:
as §1

For assay [13], the system named is CAL-85-1. Conditions: 72 h. In short, it runs like this:
as §1

Assay [14] deals with DU-4475. As to conditions: 72 h. The method in brief: as §1
In assay [15] the test system is HDQ-P1. As to conditions: 72 h. The method in brief:
as §1

In assay [16] the test system is CAL-51. Conditions: 72 h. The method in brief: as §1
Assay [17] relates to CAL-148. As to conditions: 72 h. In short, it runs like this: as §1
Assay [18] deals with DU-4475. Briefly: normalised viability (% of control), CellTiter-Blue; higher = more viable cells (about 100 = DMSO control). Conditions: incubation time: 72 h. In short, it runs like this:
(§2)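 384-well plates were pre-loaded with compound in 5 µl medium before 20 µl of breast cancer cell suspension was seeded. Following 72 h incubation, 2.5 µl CellTiter-Blue reagent was added for 2 h at 37 °C. Fluorescence was read at 560/590 nm and plates were normalised to vehicle (100) and a positive kill control (0), checked by Z'-factor. Normalised viability is reported at a single listed concentration of the series.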
Background: The colour change of resazurin is a common sign of viable cells or microbes.

Assay [19] deals with BT-474. Described as above. As to conditions: incubation time: 72 h. The method in brief: as §2
Assay [20] deals with CAL-148. The assay is described as above. Conditions: incubation time: 72 h. In short, it runs like this: as §2
Assay [21] has as its system MFM-223. As to conditions: 72 h. In short, it runs like this: (§3)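 Two sequential readouts followed a 72 h incubation of breast cancer cell lines with compound at 5 concentrations in 10-fold steps over a compound-specific 10,000-fold range: CellTox Green fluorescence (485/520 nm) for cell death, then CellTiter-Glo luminescence, after 10 min at room temperature, for viability. Each plate was normalised to 0.1 % DMSO and a positive kill control. Dose-response curves were fitted for EC50, censored at the top concentration.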
The source holds these as a separate data set.

Assay [22] has as its system DU-4475. Conditions: 72 h. In short, it runs like this:
as §3
This is another data set of the same source.

Assay [23] deals with CAL-85-1. Conditions: 72 h. The protocol:
(§4)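 Drug sensitivity and resistance testing (DSRT) of breast cancer cell lines in 384-well plates, 5 concentrations in 10-fold dilutions over a compound-specific 10,000-fold range. After 72 h, cytotoxicity was read by CellTox Green fluorescence and viability by CellTiter-Glo luminescence (multiplexed), normalised to DMSO and benzethonium chloride controls. EC50 is the inflection point of the fitted dose-response curve (bottom asymptote free, so it can be relative for partial curves) and is censored at the highest tested concentration. Rows with DSS 0 (no meaningful response) were excluded.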
This is another data set of the same source.

In assay [24] the test system is HDQ-P1. As to conditions: 72 h. In short, it runs like this: as §3
The source holds these as a separate data set.

Assay [25] concerns HCC1599. Conditions: 72 h. The method in brief: as §3
The source holds these as a separate data set.

Assay [26] concerns CAL-148. As to conditions: 72 h. In short, it runs like this: as §3
The source holds these as a separate data set.

The subject of assay [27] is HCC1143. Conditions: 72 h. The method in brief: as §3
This is another data set of the same source.

For assay [28], the system named is MFM-223. Conditions: 72 h. As for the experimental part: as §4
The source holds these as a separate data set.

The test system of assay [29] is MCF-10A. Conditions: 72 h. The protocol: as §4
Assay [30] concerns MDA-MB-436. As to conditions: 72 h. The protocol: as §4
The source holds these as a separate data set.

Assay [31] deals with BT-474. As to conditions: 72 h. The protocol:
as §4
The source holds these as a separate data set.

Assay [32] concerns Hs578T. Conditions: 72 h. As for the experimental part: as §4
The source holds these as a separate data set.

In assay [33] the test system is CAL-51. Conditions: 72 h. The protocol:
as §4
The source holds these as a separate data set.

Assay [34] relates to MDA-MB-231. As to conditions: 72 h. The protocol: as §4
This is another data set of the same source.

In assay [35] the test system is MDA-MB-468. As to conditions: 72 h. The protocol:
as §4
The source holds these as a separate data set.

In assay [36] the test system is CAL-148. Conditions: 72 h. The protocol:
as §4
The source holds these as a separate data set.

Assay [37] has as its system HCC1143. As to conditions: 72 h. As for the experimental part: as §4
This is another data set of the same source.

Assay [38] concerns CAL-120. Conditions: 72 h. The protocol: as §4
This is another data set of the same source.

Assay [39] has as its system HCC1937. Conditions: 72 h. The protocol:
as §4
This is another data set of the same source.

Assay [40] concerns HDQ-P1. As to conditions: 72 h. As for the experimental part:
as §4
This is another data set of the same source.

Assay [41] relates to MDA-MB-453. Conditions: 72 h. As for the experimental part:
as §4

Assay [42] deals with BT-549. Conditions: 72 h. As for the experimental part:
as §4
The source holds these as a separate data set.

Regarding `Cn1c(=O)n(-c2ccc(C(C)(C)C#N)cc2)c2c3cc(-c4cnc5ccccc5c4)ccc3ncc21` [NVP-BEZ235], the “EC50, CellTiter-Blue viability” value amounted to 6.87 nM in [1]; 7.73 nM in assay [2]; 52.5 nM in assay [3]; 21.7 nM in assay [4]; 12.8 nM in assay [5]; 26.4 nM in [6]. Moreover, the “EC50, CellTiter-Blue viability” value stood at 8.08 nM in [7]; 12.9 nM in assay [8]; 27.1 nM in [9]; 20.8 nM in assay [10]; 15.2 nM in assay [11]; 10.1 nM in [12]. The “EC50, CellTiter-Blue viability” value in assay [13] worked out at 12.6 nM; in assay [14] it was 54 nM; in assay [15] it was 10.8 nM; in assay [16], 10.1 nM; in assay [17] it was 17.6 nM. Also, the normalised viability in assay [18] (0.3 nM) was 125%; in assay [19] (1 nM) it was 105%; in assay [20] (0.3 nM), 95.2%.

`COc1ccccc1S(=O)(=O)Nc1ccc2c(c1)CN(C)C(=O)N2` [PFI-1]: the “EC50, CellTiter-Glo” value in assay [21] came to 3190 nM; in assay [22] it was 2670 nM. Besides, in assay [23], the “EC50, CellTox Green” value came to 9560 nM.

On to `C/C(=C\c1csc(C)n1)[C@@H]1C[C@@H]2O[C@]2(C)CCC[C@H](C)[C@H](O)[C@@H](C)C(=O)C(C)(C)[C@@H](O)CC(=O)O1` [Patupilone], for which the “EC50, CellTiter-Blue viability” value in [1] was 2.26 nM; in assay [2], 13 nM; in assay [3] it was 7.26 nM; in assay [4] it was 10.9 nM; in assay [5], 4.38 nM; in assay [6], 5.58 nM. The “EC50, CellTiter-Blue viability” value in assay [7] is 6.7 nM; in assay [8], 0.95 nM; in assay [9], 2.77 nM; in assay [10], 211 nM; in assay [11], 9.87 nM; in assay [12] it was 8.13 nM. The “EC50, CellTiter-Blue viability” value in [13] was found to be 1.56 nM; in [14], 11.1 nM; in assay [15], 16.5 nM; in assay [16], 11.4 nM; in [17] it was 3.13 nM. Besides, the “EC50, CellTiter-Glo” value in [21] is 156 nM; in assay [22] it was 93.8 nM; in assay [24] it was 66.7 nM; in [25], 584 nM; in assay [26], 30 nM; in assay [27], 18.9 nM. For the same molecule, the figures for the normalised viability in assay [18] (0.3 nM), in assay [19] (1 nM) and in assay [20] (0.3 nM) were 90.2%, 103% and 96.3%, respectively. Also, the “EC50, CellTox Green” value in assay [28] was determined as 609 nM; in [29], 145 nM; in assay [23], 53.3 nM; in [30], 8.93 nM; in assay [31], 35.1 nM; in assay [32] it was 206 nM. In addition, the “EC50, CellTox Green” value in assay [33] was found to be 2.63 nM; in [34], 136 nM; in assay [35], 1.67 nM; in assay [36], 34.8 nM; in assay [37] it was 596 nM; in assay [38], 162 nM.

With `CNNCc1ccc(C(=O)NC(C)C)cc1` [Procarbazine], the values for the normalised viability in [18] (3 nM), in [19] (10 nM) and in assay [20] (3 nM) were 90.7%, 106% and 103%, respectively.

With `CN(C)C[C@@H]1CCn2cc(c3ccccc32)C2=C(C(=O)NC2=O)c2cn(c3ccccc23)CCO1` [Ruboxistaurin], the “EC50, CellTiter-Blue viability” value in assay [1] is 4090 nM; in [2] it was 1480 nM; in assay [3] it was 505 nM; in assay [4], 2790 nM; in [5] it was 8000 nM; in [6], 2400 nM. Besides, the “EC50, CellTiter-Blue viability” value in assay [7] amounted to 8920 nM; in assay [8], 4700 nM; in assay [9] it was 2690 nM; in assay [10] it was 1730 nM; in assay [12], 6140 nM; in [14] it was 2740 nM. Further, the results for the “EC50, CellTiter-Blue viability” value in [15], in assay [16] and in assay [17] were 3540 nM, 4800 nM and 4840 nM, respectively. The “EC50, CellTiter-Glo” value was 3220 nM in assay [21]; 3790 nM in assay [22]; 2720 nM in assay [24]; 1750 nM in [26]; 9320 nM in assay [27]. For the same molecule, the normalised viability in assay [18] (3 nM) was found to be 113%; in assay [19] (10 nM), 96.7%; in assay [20] (3 nM) it was 124%. For the same molecule, the “EC50, CellTox Green” value in assay [39] was 7550 nM; in assay [23], 2320 nM; in assay [40], 5090 nM; in [30], 1000 nM; in assay [31], 370 nM; in assay [41] it was 3790 nM. The “EC50, CellTox Green” value was found to be 7220 nM in assay [42]; 1580 nM in assay [33]; 2010 nM in assay [34]; 2490 nM in assay [35]; 999 nM in [36].

The record behind these values is the supplement of paper PMC4862054.
